Test results taken from publication PMC4865845, “A human genome-wide loss-of-function screen identifies effective chikungunya antiviral drugs” (Nature Communications, 2016).

System: CHIKV
Format: cell-based, chikungunya virus

Hs_RRBP1_1 (sense CACGTAGAGGATGGTGACATA; chemistry not given here)
Score_si2: 1.82

Hs_RRBP1_3 (sense CTGGCTGCAGGTGAAAGGAAA; chemistry not given here)
Score_si4: 1.53

Hs_RRBP1_4 (sense AAGAGATTGTAGAGAAGCTAA; chemistry not given here)
Score_si3: 1.79

Hs_RTN2_1 (sense TTGGATTTACACTGTAATAAA; chemistry not given here)
Score_si4: 0.49

Hs_RTN2_2 (sense GAGCTTGGATTTACACTGTAA; chemistry not given here)
Score_si1: 2.8

Hs_RXRA_1 (sense TTCGTGTAAGCAAGTACATAA; chemistry not given here)
Score_si1: 2.2

Hs_RXRA_3 (sense TCCGTACGATTGTCTCTGAAA; chemistry not given here)
Score_si4: 0.81

Hs_RXRA_4 (sense CTCATCGGCCTTGTAGTTGTA; chemistry not given here)
Score_si2: 1.74

Hs_SAFB_1 (sense ACGGACTGTAGTAATGGATAA; chemistry not given here)
Score_si3: 0.86

Hs_SAFB_2 (sense AAGGTGGTAATCCTGACGAAA; chemistry not given here)
Score_si2: 0.95

Hs_SAFB_3 (sense CTGCCATATTGTAGCTCAATA; chemistry not given here)
Score_si1: 1.4

Hs_SARS_2 (sense CTGATGAAACCATGTAATAAA; chemistry not given here)
Score_si1: 2.9

Hs_SCLY_1 (sense CTGACTCAGCTTATACCTTAA; chemistry not given here)
Score_si3: 1.21

Hs_SCLY_2 (sense CAGAAACTAAATTAACGAATA; chemistry not given here)
Score_si4: 1.04

Hs_SDFR1_8 (sense CAGGTATATACAGCATATAAA; chemistry not given here) [reference compound]
Score_si1: -2.41

Hs_SDFR1_9 (sense CTGGTACATAAAGATGAGTAA; chemistry not given here) [reference compound]
Score_si3: -1.41

Hs_SDFR1_10 (sense ACAGGTATATACAGCATATAA; chemistry not given here) [reference compound]
Score_si2: -2.32

Hs_SDFR1_11 (sense TACATAAAGATGAGTAATATA; chemistry not given here) [reference compound]
Score_si4: -1.37

Hs_SEC61B_1 (sense TTTAATTCACTTATACTGAAA; chemistry not given here)
Score_si1: 1.55

Hs_SEC61B_2 (sense CCCAACATTTCTTGGACCAAA; chemistry not given here)
Score_si3: 1.09

Hs_SHC2_10 (sense GCGGTTTGTCCTACAAGTTTA; chemistry not given here)
Score_si4: 0.47

Hs_SHC2_11 (sense TCGGTGCTGGTGGAACAGAAA; chemistry not given here)
Score_si1: 2.36

Hs_SIMP_1 (sense CAGGGAGACATTAGATCACAA; chemistry not given here) [reference compound]
Score_si4: -0.7

Hs_SIMP_2 (sense CTGGCTTGTTAGGATATATAA; chemistry not given here) [reference compound]
Score_si1: -2.63

Hs_SIN3A_5 (sense GAGCGTGTAAGCAAGCGTCTA; chemistry not given here)
Score_si1: 2.49

Hs_SLC6A19_2 (sense CTCGGTGATTGTGTCCATCAT; chemistry not given here)
Score_si1: 2.5

Hs_SLC6A19_4 (sense CCAGAAGATCTCCTACCCGAA; chemistry not given here)
Score_si2: 0.84

Hs_SREBF2_1 (sense ACCCATAATATCATTGAGAAA; chemistry not given here)
Score_si4: 1.37

Hs_SREBF2_3 (sense CTGCAATTTGTCAGTAATCAA; chemistry not given here)
Score_si1: 2.21

Hs_SREBF2_4 (sense AAGGCCATTGATTACATCAAA; chemistry not given here)
Score_si3: 1.41

Hs_SSP411_1 (sense ATGGCCTTGCATACCCTGAAA; chemistry not given here)
Score_si1: 2.33

Hs_SULF1_1 (sense TCCGTCGAATTTGAAGGTGAA; chemistry not given here) [reference compound]
Score_si1: -2.1

Hs_SULF1_3 (sense CTGGTGTTTGCGTACAGTTAA; chemistry not given here) [reference compound]
Score_si4: -0.77

Hs_SULF1_4 (sense AGCATGGATTTGATTATGCAA; chemistry not given here) [reference compound]
Score_si2: -1.41

Hs_SYMPK_1 (sense CAGGAGCTGATCATCAACAAA; chemistry not given here)
Score_si3: 1.54

Hs_SYMPK_2 (sense CAGCCTGGTGACACAGTTCAA; chemistry not given here)
Score_si2: 1.86

Hs_TADA3L_1 (sense CTGACCGAACTGGACACTAAA; chemistry not given here) [reference compound]
Score_si2: -1.72

Hs_TADA3L_2 (sense ACCGACTGGCAGGATAAGAAA; chemistry not given here) [reference compound]
Score_si1: -1.99

Hs_TAZ_2 (sense CCGCCACATCTGGAACCTGAA; chemistry not given here)
Score_si1: 2.45

Hs_TGIF_1 (sense TACCCAGAGGACACTTGTAAA; chemistry not given here)
Score_si1: 1.41

Hs_TGIF_4 (sense TACCACTGTGACTGCATTGAA; chemistry not given here)
Score_si4: 0.65

Hs_TGIF_6 (sense TCCAAGAACTATAAACTTAAA; chemistry not given here)
Score_si3: 1

Hs_THRAP6_1 (sense ATGAAAGATTATTGTAATAAA; chemistry not given here) [reference compound]
Score_si2: -1.47

Hs_THRAP6_6 (sense CTGAGATTGGTATATGACAAA; chemistry not given here) [reference compound]
Score_si1: -1.48

Hs_TMPIT_1 (sense CTGGTGGGTGTTCCATCACTA; chemistry not given here)
Score_si1: 2.87

Hs_TOR2A_2 (CACGGGTGGCGAGCAGATCAA; chemistry not given here)
Score_si1: 2.35

Hs_TRAF2_2 (CAGAGTTATTAAACCATTCAA; chemistry not given here) [reference compound]
Score_si2: -0.92

Hs_TRAF2_4 (CTGGACCAAGACAAGATTGAA; chemistry not given here) [reference compound]
Score_si1: -1.15

Hs_TRAF2_5 (CACGAGGGCATATATGAAGAA; chemistry not given here) [reference compound]
Score_si4: -0.76

Hs_TREX2_1 (CACAATGGCTTTGATTATGAT; chemistry not given here) [reference compound]
Score_si1: -2.42

Hs_TRRAP_1 (AAGATTCGACAGCAAGTTAAA; chemistry not given here)
Score_si4: 1.01

Hs_TUSC1_1 (TCCCTGTACATCTAATATATA; chemistry not given here) [reference compound]
Score_si1: -1.75

Hs_TUSC1_2 (ACCGATCATTCTATTATCATT; chemistry not given here) [reference compound]
Score_si2: -1.18
